Laboratory results from ChEMBL document CHEMBL1143885, “Aryl-indolyl maleimides as inhibitors of CaMKIIdelta. Part 1: SAR of the aryl region” (Bioorg Med Chem Lett, 2008).

target: Calcium/calmodulin-dependent protein kinase type II subunit delta (Homo sapiens, UniProt Q13557); experiment: Inhibition of CaMK2delta
Sequence (Q13557 whole entry): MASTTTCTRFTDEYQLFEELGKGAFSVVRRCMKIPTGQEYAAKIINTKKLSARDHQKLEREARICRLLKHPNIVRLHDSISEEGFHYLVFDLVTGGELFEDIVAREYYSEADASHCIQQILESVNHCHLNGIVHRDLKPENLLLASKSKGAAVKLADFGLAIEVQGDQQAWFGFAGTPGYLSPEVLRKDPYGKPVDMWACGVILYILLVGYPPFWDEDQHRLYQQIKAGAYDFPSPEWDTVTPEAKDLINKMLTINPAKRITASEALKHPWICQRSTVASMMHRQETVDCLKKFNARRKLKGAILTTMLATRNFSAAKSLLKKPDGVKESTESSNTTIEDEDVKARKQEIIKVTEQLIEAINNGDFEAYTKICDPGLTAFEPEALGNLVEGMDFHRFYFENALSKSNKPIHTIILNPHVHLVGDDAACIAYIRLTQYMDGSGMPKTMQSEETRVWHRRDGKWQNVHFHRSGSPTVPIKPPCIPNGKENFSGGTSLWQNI

SMILES	IC50 [µM]
CC(C)(C)OC(=O)NCCCn1cc(C2=C(c3csc4ccccc34)C(=O)NC2=O)c2ccccc21	> 20
Cc1[nH]c2ccccc2c1C1=C(c2cn(CCCNC(=O)OC(C)(C)C)c3ccccc23)C(=O)NC1=O	7.61
NCCCn1cc(C2=C(c3ccccn3)C(=O)NC2=O)c2ccccc21	1.58
NCCCn1cc(C2=C(c3ccncc3)C(=O)NC2=O)c2ccccc21	1.6
CN1C(=O)C(c2c[nH]c3ccc(Br)cc23)=C(c2cn(CCCN)c3ccccc23)C1=O	> 20
CN1C(=O)C(c2ccccc2)=C(c2cn(CCCN)c3ccccc23)C1=O	15
NCCCn1cc(C2=C(c3ccc4ccccc4n3)C(=O)NC2=O)c2ccccc21	> 20
NCCCn1cc(C2=C(c3ccnc4ccccc34)C(=O)NC2=O)c2ccccc21	0.63
NCCCn1cc(C2=C(c3cccc(Oc4ccccc4)c3)C(=O)NC2=O)c2ccccc21	1.68
NCCCn1cc(C2=C(c3cccnc3)C(=O)NC2=O)c2ccccc21	0.54
NCCCn1cc(C2=C(c3cccs3)C(=O)NC2=O)c2ccccc21	1.19
Cc1cccc(C2=C(c3cn(CCCN)c4ccccc34)C(=O)NC2=O)c1	0.28
CC(C)(C)OC(=O)NCCCn1cc(C2=C(c3cccs3)C(=O)NC2=O)c2ccccc21	> 20
NCCCn1cc(C2=C(c3cccc(-c4ccccc4)c3)C(=O)NC2=O)c2ccccc21	1.32
NCCCn1cc(C2=C(c3ccc4ccccc4c3)C(=O)NC2=O)c2ccccc21	0.5
NCCCn1cc(C2=C(c3ccco3)C(=O)NC2=O)c2ccccc21	1.49
NCCCn1cc(C2=C(c3cccc4ccccc34)C(=O)NC2=O)c2ccccc21	0.29
CN1C(=O)C(c2csc3ccccc23)=C(c2cn(CCCN)c3ccccc23)C1=O	2.32
